In patent publication EP4667483A1, “HUMAN TRANSFERRIN RECEPTOR-BINDING PEPTIDE” (JCR Pharmaceuticals Co., Ltd., priority 2023, dated 2024):
Values belong to the compound of their own block, whether it stands above or below them. Numbered stars: 1 amine (or outer) side, 2 acyl side, 3 side chain; on linkers, the order of the positions; unused ones are H or OH. Bridge positions count the residues as written; N and C are the ends. Square brackets hold non-standard residues; d marks the D form. Peptide text beside a SMILES is read from it. * marks the point of attachment. Trp(1-CH2COOH) = N[C@@H](Cc1cn(CC(=O)O)c2ccccc12)C(=O)O; Nle(6-morpholino) = N[C@@H](CCCCN1CCOCC1)C(=O)O; Trp(7-aza) = N[C@@H](Cc1c[nH]c2ncccc12)C(=O)O; NMePhe(3-Cl) = CN[C@@H](Cc1cccc(Cl)c1)C(=O)O; 3Pal(6-NH2) = Nc1ccc(C[C@H](N)C(=O)O)cn1; NMeW = CN[C@@H](Cc1c[nH]c2ccccc12)C(=O)O; X6 = Cc1cc(C[C@H](N[*:1])C(=O)[*:2])ccn1; NMeY = CN[C@@H](Cc1ccc(O)cc1)C(=O)O; Nva(3-Et) = CCC(CC)[C@H](N)C(=O)O; 4Pal = N[C@@H](Cc1ccncc1)C(=O)O; PEG4 = NCCOCCOCCOCCOCCC(=O)O; Carboxymethyl = O=C(O)C*

Tests used:
[1] = molecular target: T1, human transferrin receptor (hTfR) (Homo sapiens, UniProt P02786); assay: SPR measurement under pH 6.0 conditions (Biacore T200, NTA chip, immobilized hTfR); format: binding; conditions: read-out: hTfR SPR pH6.0 KD
Procedure: (§1) Molecular interactions between the synthesized peptides and the transferrin receptor (hTfR) were evaluated by surface plasmon resonance (SPR) using the following method. The specific assay procedure is described below.
An NTA sensor chip (Cytiva) was inserted in a Biacore T200 (Cytiva), a priming operation was performed 3 times with a running buffer: HBS-P+ pH 6.0 (Cytiva), and an equilibrium state was created at a flow rate of 30 µL/min. A ligand immobilization operation was carried out at a flow rate of 10 µL/min.
The surface of the NTA sensor chip was washed with 350 mM EDTA solution, nickel ions were loaded into the carbomethyldextran chains of the sensor chip with a 500 µM aqueous nickel chloride solution, and then washing was performed with 3 mM EDTA solution. After mixing 50 µL of each of 60 mM EDC solution (Cytiva) and 650 mM NHS solution (Cytiva), the mixture was reacted for 420 seconds at a flow rate of 10 µL/min. 150 µL of 0.2 µM hTfR solution was prepared by diluting with 10 mM acetic acid solution (pH 5.0), and reacted for 420 seconds at a flow rate of 10 µL/min to immobilize hTfR on the NTA sensor chip. For the human transferrin receptor (hTfR), the recombinant hTfR described in Example 2 of WO2018/124121 was used. After immobilization, capping was performed by reacting with 1.0 M ethanolamine aqueous solution (Cytiva) at a flow rate of 10 µL/min for 420 seconds. Peptide lysate prepared in DMSO to 10 mM was diluted with the running buffer to a final concentration of 10 µM peptide lysate, and then peptide solutions of 250 nM, 125 nM, 62.5 nM, 25 nM, and 12.5 nM were prepared. The kinetics of the peptide against hTfR was obtained by SPR measurement using the above samples.
(§2) The kinetic evaluation model was single-cycle kinetics, and curve fitting was performed using Biacore T200 Evaluation Software Version 3.0 (Cytiva). The binding of the peptide to hTfR was evaluated by performing curve fitting on the obtained sensorgram by the least squares method and obtaining the kon value, the koff value, and the KD value.

[2] = molecular target: T1, human transferrin receptor (hTfR); assay: SPR measurement under pH 7.4 conditions (Biacore T200, CM3 chip, hTfR captured by His Tag antibody); format: binding; conditions: pH 7.4, single-cycle kinetics; read-out: hTfR SPR pH7.4 KD
Procedure: as §1
An CM3 sensor chip (Cytiva) was inserted into BiacoreT200 (Cytiva), then a priming operation was performed three times by using a running buffer: HBS-P+, pH7.4 (Cytiva), and an equilibrium state was created at a flow rate of […]. Ligand immobilization was performed at a flow rate of 10 µL/min. After mixing 50 µL each of 60 mM EDC solution (Cytiva) and 650 mM NHS solution (Cytiva), the mixture was reacted at a flow rate of 10 µL/min for 420 seconds. 150 µL of […] THE His Tag Antibody, mAb, Mouse (GenScript) was prepared by diluting with 10 mM acetic acid solution (pH 5.0), and reacted at a flow rate of 10 µL/ min for 420 seconds. Then, THE His Tag Antibody, mAb, Mouse (GenScript) was immobilized as a capture molecule on the CM3 sensor chip. After immobilization, capping was performed by reacting with 1.0 M ethanolamine solution (Cytiva) at a flow rate of 10 µL/min for 420 seconds. 300 nM hTfR was captured at a flow rate of 10 µL/min, a peptide solution prepared at 10 mM in DMSO was diluted with running buffer to achieve a final concentration of 10 µM, and peptide solutions at 250 nM, 125 nM, 62.5 nM, 25 nM, and 12.5 nM were prepared. . The peptide samples were reacted at a flow late of 30 µL/min for 120 seconds, followed by dissociation for 600 seconds. The kinetics of the peptide against hTfR was obtained by SPR measurement for the above samples.
as §2

[3] = SPR, pH 6.0, peptide with the linker named in the table

T1 sequence (P02786 whole entry): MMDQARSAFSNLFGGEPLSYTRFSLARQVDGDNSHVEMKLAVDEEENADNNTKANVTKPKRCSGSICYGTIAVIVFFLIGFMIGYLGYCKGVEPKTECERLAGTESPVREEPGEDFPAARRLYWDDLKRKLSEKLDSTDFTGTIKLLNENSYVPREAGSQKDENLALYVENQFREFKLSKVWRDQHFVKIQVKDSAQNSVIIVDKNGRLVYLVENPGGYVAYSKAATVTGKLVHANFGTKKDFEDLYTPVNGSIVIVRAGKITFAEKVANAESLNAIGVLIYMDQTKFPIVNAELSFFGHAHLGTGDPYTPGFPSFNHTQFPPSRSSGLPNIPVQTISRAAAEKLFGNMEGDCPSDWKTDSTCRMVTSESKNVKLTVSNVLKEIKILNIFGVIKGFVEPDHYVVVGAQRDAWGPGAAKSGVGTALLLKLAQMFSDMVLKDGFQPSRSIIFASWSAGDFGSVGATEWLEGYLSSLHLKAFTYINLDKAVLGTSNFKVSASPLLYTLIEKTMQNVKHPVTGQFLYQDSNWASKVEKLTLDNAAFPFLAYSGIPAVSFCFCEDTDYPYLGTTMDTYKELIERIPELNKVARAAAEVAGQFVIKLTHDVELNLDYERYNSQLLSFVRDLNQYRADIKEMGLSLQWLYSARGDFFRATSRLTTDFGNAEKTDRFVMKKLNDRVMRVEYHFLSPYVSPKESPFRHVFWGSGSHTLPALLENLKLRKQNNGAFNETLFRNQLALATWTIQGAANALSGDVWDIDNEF

SMILES: CC[C@H](C)[C@@H]1NC(=O)[C@H](Cc2ccc(OC)cc2)NC(=O)[C@H](Cc2ccc(N)nc2)NC(=O)[C@H](CC(N)=O)NC(=O)[C@H](Cc2c[nH]c3ncccc23)NC(=O)[C@H](C(C)C)NC(=O)[C@H](Cc2cccc(Cl)c2)N(C)C(=O)[C@H](C(C)C)NC(=O)[C@H](C)NC(=O)CSC[C@@H](C(=O)NCCOCCOCCOCCOCCC(N)=O)NC(=O)[C@H](Cc2ccc(O)cc2)N(C)C(=O)[C@H](Cc2ccncc2)NC(=O)[C@H](CCCNC(=N)N)NC(=O)[C@H](CCCNC(=N)N)NC(=O)[C@H]([C@@H](C)CC)NC1=O [compound 1]
Kd ([1]; pH 6.0, single-cycle kinetics): 18.2 nM | Kd [2]: 1.56 nM

SMILES: CC[C@H](C)[C@@H]1NC(=O)[C@H](Cc2ccc(OC)cc2)NC(=O)[C@H](Cc2ccc(N)nc2)NC(=O)[C@H](CC(N)=O)NC(=O)[C@H](Cc2c[nH]c3ncccc23)NC(=O)[C@H](C(C)C)NC(=O)[C@H](Cc2cccc(Cl)c2)N(C)C(=O)[C@H](C(C)C)NC(=O)[C@H](C)NC(=O)CSC[C@@H](C(=O)NCCOCCOCCOCCOCCC(N)=O)NC(=O)[C@H](Cc2ccc(O)cc2)N(C)C(=O)[C@H](Cc2ccncc2)NC(=O)[C@H](CCCNC(=N)N)NC(=O)[C@H](CCCCN2CCOCC2)NC(=O)[C@H]([C@@H](C)CC)NC1=O [compound 2] ({CH2CO}-AV[NMePhe(3-Cl)]V[Trp(7-aza)]N[3Pal(6-NH2)]Y(Me)II[Nle(6-morpholino)]R[4Pal][NMeY]C[PEG4]-NH2; thioether N-15)
Kd ([1]; pH 6.0, single-cycle kinetics): 16.2 nM | Kd [2]: 0.888 nM

SMILES: CC[C@H](C)[C@@H]1NC(=O)[C@H](Cc2ccc(O)cc2)NC(=O)[C@H](Cc2ccc(N)nc2)NC(=O)[C@H](CC(N)=O)NC(=O)[C@H](Cc2c[nH]c3ccccc23)NC(=O)[C@H](C(C)C)NC(=O)[C@H](Cc2ccccc2)N(C)C(=O)[C@H](C(C)C)NC(=O)[C@H](C)NC(=O)CSC[C@@H](C(=O)NCCOCCOCCOCCOCCC(N)=O)NC(=O)[C@H](Cc2ccc(O)cc2)N(C)C(=O)[C@H](Cc2ccc(O)cc2)NC(=O)[C@H](CCCNC(=N)N)NC(=O)[C@H](CCCCN)NC(=O)[C@H]([C@@H](C)CC)NC1=O [compound 123]
Kd [1, 3]: 17.4 nM

SMILES: CCC(CC)[C@@H]1NC(=O)[C@H](Cc2ccc(O)cc2)NC(=O)[C@H](Cc2ccc(O)cc2)NC(=O)[C@H](CC(N)=O)NC(=O)[C@H](Cc2c[nH]c3ccccc23)N(C)C(=O)[C@H](C(C)C)NC(=O)[C@H](Cc2cccc(Cl)c2)N(C)C(=O)[C@H](C(C)C)NC(=O)[C@H](C)NC(=O)CSC[C@@H](C(=O)NCCOCCOCCOCCOCCC(N)=O)NC(=O)[C@H](Cc2ccc(O)cc2)N(C)C(=O)[C@H](Cc2ccc(O)cc2)NC(=O)[C@H](CCCNC(=N)N)NC(=O)[C@H](CCCCN)NC(=O)[C@H](CO)NC1=O [compound 132] ({CH2CO}-AV[NMePhe(3-Cl)]V[NMeW]NYY[Nva(3-Et)]SKRY[NMeY]C[PEG4]-NH2; thioether N-15)
Kd [1, 3]: 13.2 nM

SMILES: CC[C@H](C)[C@@H]1NC(=O)[C@H](Cc2ccc(O)cc2)NC(=O)[C@H](Cc2ccc(O)cc2)NC(=O)[C@H](CC(N)=O)NC(=O)[C@H](Cc2c[nH]c3ccccc23)N(C)C(=O)[C@H](C(C)C)NC(=O)[C@H](Cc2cccnc2)N(C)C(=O)[C@H](C(C)C)NC(=O)[C@H](C)NC(=O)CSC[C@@H](C(=O)NCCOCCOCCOCCOCCC(N)=O)NC(=O)[C@H](Cc2ccc(O)cc2)N(C)C(=O)[C@H](Cc2ccc(O)cc2)NC(=O)[C@H](CCCNC(=N)N)NC(=O)[C@H](CCCCN)NC(=O)[C@H]([C@@H](C)CC)NC1=O [compound 135]
Kd [1, 3]: 15.3 nM

Continued, values first:

Kd ([1]; SPR, pH 6.0, Table 2-1-2): 58.9 nM
SMILES: CCC(CC)[C@@H]1NC(=O)[C@H](Cc2ccc(OCC(=O)O)cc2)NC(=O)[C@H](Cc2ccc(NCC(=O)O)nc2)NC(=O)[C@H](CC(N)=O)NC(=O)[C@H](Cc2cn(CC(=O)O)c3ccccc23)NC(=O)[C@H](C(C)C)NC(=O)[C@H](Cc2cccc(Cl)c2)N(C)C(=O)[C@H](C(C)C)NC(=O)[C@H](C)NC(=O)CSC[C@@H](C(=O)NCCOCCOCCOCCOCCC(N)=O)NC(=O)[C@H](Cc2ccc(O)cc2)N(C)C(=O)[C@H](Cc2cccc(C(=O)O)c2)NC(=O)[C@H](CCCNC(=N)N)NC(=O)[C@H](CCC(N)=O)NC(=O)[C@H]([C@@H](C)CC)NC1=O [compound 150]

Kd ([1]; SPR, pH 6.0, Table 2-1-2): 48.2 nM
SMILES: CCC(CC)[C@@H]1NC(=O)[C@H](Cc2ccc(NCC(=O)O)nc2)NC(=O)[C@H](Cc2ccc(O)cc2)NC(=O)[C@H](CC(N)=O)NC(=O)[C@H](Cc2cn(CC(=O)O)c3ccccc23)NC(=O)[C@H](C(C)C)NC(=O)[C@H](Cc2cccc(Cl)c2)N(C)C(=O)[C@H](C(C)C)NC(=O)[C@H](C)NC(=O)CSC[C@@H](C(=O)NCCOCCOCCOCCOCCC(N)=O)NC(=O)[C@H](Cc2ccc(O)cc2)N(C)C(=O)[C@H](Cc2cccc(C(=O)O)c2)NC(=O)[C@H](CCCNC(=N)N)NC(=O)[C@H](CCC(N)=O)NC(=O)[C@H]([C@@H](C)CC)NC1=O [compound 151]

Kd ([1]; SPR, pH 6.0, Table 2-1-2): 116 nM
SMILES: CCC(CC)[C@@H]1NC(=O)[C@H](Cc2ccc(OCC(=O)O)cc2)NC(=O)[C@H](Cc2ccc(O)cc2)NC(=O)[C@H](CC(N)=O)NC(=O)[C@H](Cc2cn(CC(=O)O)c3ccccc23)NC(=O)[C@H](C(C)C)NC(=O)[C@H](Cc2cccc(Cl)c2)N(C)C(=O)[C@H](C(C)C)NC(=O)[C@H](C)NC(=O)CSC[C@@H](C(=O)NCCOCCOCCOCCOCCC(N)=O)NC(=O)[C@H](Cc2ccc(O)cc2)N(C)C(=O)[C@H](Cc2ccnc(C)c2)NC(=O)[C@H](CCCNC(=N)N)NC(=O)[C@H](CCC(N)=O)NC(=O)[C@H]([C@@H](C)CC)NC1=O [compound 152] ({CH2CO}-AV[NMePhe(3-Cl)]V[Trp(1-CH2COOH)]NYY(Carboxymethyl)[Nva(3-Et)]IQR[X6][NMeY]C[PEG4]-NH2; thioether N-15)

Kd ([1]; pH 6.0, single-cycle kinetics): 0.678 nM
SMILES: CC[C@H](C)[C@@H]1NC(=O)[C@H](Cc2ccc(OC)cc2)NC(=O)[C@H](Cc2ccc(O)cc2)NC(=O)[C@H](CC(N)=O)NC(=O)[C@H](Cc2c[nH]c3ccccc23)N(C)C(=O)[C@H](C(C)C)NC(=O)[C@H](Cc2cccc(Cl)c2)N(C)C(=O)[C@H](C(C)C)NC(=O)[C@H](C)NC(=O)CSC[C@@H](C(=O)NCCOCCOCCOCCOCCC(N)=O)NC(=O)[C@H](Cc2ccc(O)cc2)N(C)C(=O)[C@H](Cc2ccccc2)NC(=O)[C@H](CCCNC(=N)N)NC(=O)[C@H](CCC(=O)NCCCN)NC(=O)[C@H]([C@@H](C)CC)NC1=O [compound 171]

Kd ([1]; pH 6.0, single-cycle kinetics): 13.3 nM
SMILES: CC[C@H](C)[C@@H]1NC(=O)[C@H](Cc2ccc(OC)cc2)NC(=O)[C@H](CCCNC(=N)N)NC(=O)[C@H](CC(N)=O)NC(=O)[C@H](Cc2c[nH]c3ccccc23)N(C)C(=O)[C@H](C(C)C)NC(=O)[C@H](Cc2cccc(Cl)c2)N(C)C(=O)[C@H](C(C)C)NC(=O)[C@H](C)NC(=O)CSC[C@@H](C(=O)NCCOCCOCCOCCOCCC(N)=O)NC(=O)[C@H](Cc2ccc(O)cc2)N(C)C(=O)[C@H](Cc2ccccc2)NC(=O)[C@H](CCCNC(=N)N)NC(=O)[C@H](CCCCN)NC(=O)[C@H]([C@@H](C)CC)NC1=O [compound 173] ({CH2CO}-AV[NMePhe(3-Cl)]V[NMeW]NRY(Me)IIKRF[NMeY]C[PEG4]-NH2; thioether N-15)

Kd ([1]; SPR, pH 6.0, Table 1-3-2-2): 145 nM
SMILES: CC[C@H](C)[C@@H]1NC(=O)[C@H](Cc2ccc(O)cc2)NC(=O)[C@H](Cc2ccc(N)nc2)NC(=O)[C@H](CC(N)=O)NC(=O)[C@H](Cc2c[nH]c3ccccc23)N(C)C(=O)[C@H](C(C)C)NC(=O)[C@H](Cc2ccccc2)N(C)C(=O)[C@H](C(C)C)NC(=O)[C@H](C)NC(=O)CSC[C@@H](C(=O)NCC(=O)N[C@H](CCC(=O)O)C(=O)N[C@H](CCC(=O)O)C(=O)N[C@H](CCC(=O)O)C(=O)N[C@H](CO)C(=O)N[C@H](CO)C(=O)N[C@@H](CCCCN=[N+]=[N-])C(N)=O)NC(=O)[C@H](Cc2ccc(C(=O)O)cc2)N(C)C(=O)[C@H](Cc2ccc(O)cc2)NC(=O)[C@H](CCCNC(=N)N)NC(=O)[C@H](CCCCN)NC(=O)[C@H]([C@@H](C)CC)NC1=O [compound 186]
